Drawing on patent US9527853B2, “Fused triazole derivatives as gamma secretase modulators” (Ares Trading S.A., priority 2012, dated 2016), this text covers Abtot/Ab42 selectivity ranges and IC50 for 22 compounds.

The subject of assay [1] is AβTotal. The assay is described as follows: Amyloidβ peptide release (AβTotal) assay, AlphaLisa on supernatant of APPswe-HEK cells. The class given is cell-based, human. The note with it: 24 hours, ratio Abtot versus Ab42. Here is the method:
(§1) Amyloidβ Peptide Release (Aβ42 & AβTotal) Assay to Determine IC50 Values.
(§2) Amyloidβ peptide release (Aβ42 & AβTotal) assay are performed in 384 well microtiter plates (Perkin Elmer AlphaPlate #6008350) in a final volume of 20 μl, using supernatant coming from APPswe-HEK cells exposed to test compounds. Compounds are dissolved in and diluted in 100% DMSO and incubated with APPswe-HEK cells for 24 hours a 37° C. in 5% CO2. The supernatant from APPswe-HEK cells are mixed with antibodies: for Aβ42 detection: AlphaLisa Amyloid β 1-42 Kit (Perkin Elmer AL203L) Anti-Amyloid β1-42-specific antibody acceptor beads, biotinylated anti-Amyloid “β1-42” antibody and streptavidin (SA) donor beads diluted in AlphaLisa buffer (to the instructions of the supplier). For Aβ total detection: Custom Anti-Amyloid βtotal acceptor beads (6E10 acceptor beads), biotinylated anti-Amyloid “β1-42” antibody (Perkin Elmer AL203L) and streptavidin (SA) donor beads diluted in AlphaLisa buffer (to the instructions of the supplier). After addition of supernatant to the antibody mix, the assay is incubated 4 h and 30 minutes. AmyloidP peptide release (Aβ42 & AβTotal) is measured with a Pherastar FS (BMG) multimode reader using the alphascreen module.

The subject of assay [2] is Aβ42. The assay is described as follows: Amyloidβ peptide release (Aβ42) assay, AlphaLisa on supernatant of APPswe-HEK cells. The format is cell-based. The conditions noted are these: Homo sapiens, 24 hours incubation with compound, read-out: Ab42 IC50 Ranges. Here is the method: as §1, §2

Structures are written as SMILES.

As to `COc1cc(C(=O)Nc2nnn3c2CCCC3c2cccc(C(F)(F)F)c2)ccc1-n1cnc(C)c1` (centres unmarked) [Example 42, 3-methoxy-4-(4-methyl-1H-imidazol-1-yl)-N-(7-(3-(trifluoromethyl)phenyl)-4,5,6,7-tetrahydro-[1,2,3]triazolo[1,5-a]pyridin-3-yl)benzamide], the Abtot/Ab42 selectivity ranges result in assay [1] is reported as “c (c: 50 fold > selectivity ≧ 10 fold)”. For the same compound, the IC50 in assay [2] is 500 to 1000 nM.

As for `COc1cc(NC(=O)c2nnn3c2CCCC3c2ccc(F)cc2)ccc1-n1cnc(C)c1` (centres unmarked) [Example 20, 7-(4-fluorophenyl)-N-(3-methoxy-4-(4-methyl-1H-imidazol-1-yl)phenyl)-4,5,6,7-tetrahydro-[1,2,3]triazolo[1,5-a]pyridine-3-carboxamide], the Abtot/Ab42 selectivity ranges result in assay [1] was “b (b: 100 fold > selectivity ≧ 50 fold)”. The IC50 in assay [2] lay in the range of 150 to 500 nM.

For `COc1cc(C(=O)Nc2nnn3c2CCC3c2ccc(Cl)c(Cl)c2)ccc1-n1cnc(C)c1` (centres unmarked) [Example 45], the Abtot/Ab42 selectivity ranges result in assay [1] was “c (c: 50 fold > selectivity ≧ 10 fold)”. Moreover, in assay [2], the 50% inhibitory concentration (IC50) was in the range of 150 to 500 nM.

On to `COc1cc(Nc2nnn3c2CCCC3c2ccc(Cl)c(Cl)c2)ccc1-n1cnc(C)c1` (centres unmarked) [Example 5, 7-(3,4-dichlorophenyl)-N-(3-methoxy-4-(4-methyl-1H-imidazol-1-yl)phenyl)-4,5,6,7-tetrahydro-[1,2,3]triazolo[1,5-a]pyridin-3-amine], for which the Abtot/Ab42 selectivity ranges entry in assay [1] is reported as “b (b: 100 fold > selectivity ≧ 50 fold)”. Besides, the IC50 in assay [2] lay within 150 to 500 nM.

Take `COc1cc(NC(=O)c2nnn3c2CCCC3c2ccc(F)cc2Cl)ccc1-n1cnc(C)c1` (centres unmarked) [Example 17, 7-(2-chloro-4-fluorophenyl)-N-(3-methoxy-4-(4-methyl-1H-imidazol-1-yl)phenyl)-4,5,6,7-tetrahydro-[1,2,3]triazolo[1,5-a]pyridine-3-carboxamide]: the Abtot/Ab42 selectivity ranges result in assay [1] is “c (c: 50 fold > selectivity ≧ 10 fold)”. The IC50 in assay [2] was in the range of 150 to 500 nM.

Regarding `COc1nc(NC(=O)c2nnn3c2CCC3c2ccc(Cl)cc2)ccc1-n1cnc(C)c1` (centres unmarked) [Example 29, 6-(4-chlorophenyl)-N-(6-methoxy-5-(4-methyl-1H-imidazol-1-yl)pyridin-2-yl)-5,6-dihydro-4H-pyrrolo[1,2-c][1,2,3]triazole-3-carboxamide], the Abtot/Ab42 selectivity ranges entry in assay [1] is listed as “a (a: selectivity ≧ 100 fold)”. Also, the IC50 in assay [2] is less than 1000 nM.

Turning to `COc1cc(Nc2nnn3c2CCCC3c2cccc(C(F)(F)F)c2)ccc1-n1cnc(C)c1` (centres unmarked) [Example 6, N-(3-methoxy-4-(4-methyl-1H-imidazol-1-yl)phenyl)-7-(3-(trifluoromethyl)phenyl)-4,5,6,7-tetrahydro-[1,2,3]triazolo[1,5-a]pyridin-3-amine], the Abtot/Ab42 selectivity ranges entry in assay [1] is on record as “b (b: 100 fold > selectivity ≧ 50 fold)”. In addition, the IC50 in assay [2] lay within 150 to 500 nM.

As to `COc1cc(NC(=O)c2nnn3c2CCC3c2ccccc2Cl)ccc1-n1cnc(C)c1` (centres unmarked) [Example 32, 6-(2-chlorophenyl)-N-(3-methoxy-4-(4-methyl-1H-imidazol-1-yl)phenyl)-5,6-dihydro-4H-pyrrolo[1,2-c][1,2,3]triazole-3-carboxamide], the Abtot/Ab42 selectivity ranges result in assay [1] is recorded as “b (b: 100 fold > selectivity ≧ 50 fold)”. In assay [2], the IC50 was not above 150 nM.

For the compound `COc1cc(NC(=O)c2nnn3c2CCC3c2ccc(F)cc2)ccc1-n1cnc(C)c1` (centres unmarked) [Example 36, 6-(4-fluorophenyl)-N-(3-methoxy-4-(4-methyl-1H-imidazol-1-yl)phenyl)-5,6-dihydro-4H-pyrrolo[1,2-c][1,2,3]triazole-3-carboxamide], in assay [1], the Abtot/Ab42 selectivity ranges entry is “b (b: 100 fold > selectivity ≧ 50 fold)”. For the same compound, in assay [2], the IC50 was 150 to 500 nM.

Take `COc1cc(NC(=O)c2nnn3c2CCCC3c2ccc(Cl)cc2)ccc1-n1cnc(C)c1` (centres unmarked) [Example 12, 7-(4-chlorophenyl)-N-(3-methoxy-4-(4-methyl-1H-imidazol-1-yl)phenyl)-4,5,6,7-tetrahydro-[1,2,3]triazolo[1,5-a]pyridine-3-carboxamide]: the Abtot/Ab42 selectivity ranges result in assay [1] was “b (b: 100 fold > selectivity ≧ 50 fold)”. In assay [2], the IC50 was not above 150 nM.

For the compound `COc1cc(Nc2nnn3c2CCCC3c2ccc(F)cc2Cl)ccc1-n1cnc(C)c1` (centres unmarked) [Example 1, 7-(2-chloro-4-fluorophenyl)-N-(3-methoxy-4-(4-methyl-1H-imidazol-1-yl)phenyl)-4,5,6,7-tetrahydro-[1,2,3]triazolo[1,5-a]pyridin-3-amine], in assay [1], the Abtot/Ab42 selectivity ranges result is given as “b (b: 100 fold > selectivity ≧ 50 fold)”. The IC50 in assay [2] is 150 to 500 nM.

For `COc1cc(Nc2nnn3c2CCC3c2ccc(F)cc2)ccc1-n1cnc(C)c1` (centres unmarked) [Example 10, 6-(4-fluorophenyl)-N-(3-methoxy-4-(4-methyl-1H-imidazol-1-yl)phenyl)-5,6-dihydro-4H-pyrrolo[1,2-c][1,2,3]triazol-3-amine], the Abtot/Ab42 selectivity ranges entry in assay [1] is listed as “a (a: selectivity ≧ 100 fold)”. Also, the IC50 in assay [2] lay within 150 to 500 nM.

For `COc1cc(NC(=O)c2nnn3c2CCCC3c2ccc(Cl)c(Cl)c2)ccc1-n1cnc(C)c1` (centres unmarked) [Example 19, 7-(3,4-dichlorophenyl)-N-(3-methoxy-4-(4-methyl-1H-imidazol-1-yl)phenyl)-4,5,6,7-tetrahydro-[1,2,3]triazolo[1,5-a]pyridine-3-carboxamide], the Abtot/Ab42 selectivity ranges entry in assay [1] is given as “b (b: 100 fold > selectivity ≧ 50 fold)”. Besides, in assay [2], the IC50 was not above 150 nM.

Take `COc1cc(Nc2nnn3c2CCCC3c2ccc(F)cc2)ccc1-n1cnc(C)c1` (centres unmarked) [Example 7, 7-(4-fluorophenyl)-N-(3-methoxy-4-(4-methyl-1H-imidazol-1-yl)phenyl)-4,5,6,7-tetrahydro-[1,2,3]triazolo[1,5-a]pyridin-3-amine]: in assay [1], the Abtot/Ab42 selectivity ranges result is “b (b: 100 fold > selectivity ≧ 50 fold)”. In addition, in assay [2], the IC50 was in the range of 150 to 500 nM.

As for `Cc1cn(-c2ccc(NC(=O)c3nnn4c3CCCC4c3ccc(Cl)cc3)cc2F)cn1` (centres unmarked) [Example 14, 7-(4-chlorophenyl)-N-(3-fluoro-4-(4-methyl-1H-imidazol-1-yl)phenyl)-4,5,6,7-tetrahydro-[1,2,3]triazolo[1,5-a]pyridine-3-carboxamide], the Abtot/Ab42 selectivity ranges result in assay [1] was “c (c: 50 fold > selectivity ≧ 10 fold)”. In addition, the IC50 in assay [2] lay within 150 to 500 nM.

Take `Cc1cn(-c2ccc(NC(=O)c3nnn4c3CCC4c3ccc(Cl)cc3)cc2C#N)cn1` (centres unmarked) [Example 27, 6-(4-chlorophenyl)-N-(3-cyano-4-(4-methyl-1H-imidazol-1-yl)phenyl)-5,6-dihydro-4H-pyrrolo[1,2-c][1,2,3]triazole-3-carboxamide]: the Abtot/Ab42 selectivity ranges entry in assay [1] is listed as “c (c: 50 fold > selectivity ≧ 10 fold)”. The IC50 in assay [2] fell in the range of 150 to 500 nM.

`COc1cc(Nc2nnn3c2CCC3c2ccc(Cl)cc2)ccc1-n1cnc(C)c1` (centres unmarked) [Example 8, 6-(4-chlorophenyl)-N-(3-methoxy-4-(4-methyl-1H-imidazol-1-yl)phenyl)-5,6-dihydro-4H-pyrrolo[1,2-c][1,2,3]triazol-3-amine]: the Abtot/Ab42 selectivity ranges entry in assay [1] is given as “a (a: selectivity ≧ 100 fold)”. In addition, in assay [2], the IC50 was 150 to 500 nM.

`COc1cc(Nc2nnn3c2CCC3c2ccccc2Cl)ccc1-n1cnc(C)c1` (centres unmarked) [Example 11, 6-(2-chlorophenyl)-N-(3-methoxy-4-(4-methyl-1H-imidazol-1-yl)phenyl)-5,6-dihydro-4H-pyrrolo[1,2-c][1,2,3]triazol-3-amine]: in assay [1], the Abtot/Ab42 selectivity ranges result is “b (b: 100 fold > selectivity ≧ 50 fold)”. Further, the half-inhibitory concentration (IC50) in assay [2] fell in the range of 150 to 500 nM.

With `COc1cc(NC(=O)c2nnn3c2CCCC3c2ccc(C(F)(F)F)cc2)ccc1-n1cnc(C)c1` (centres unmarked) [Example 25, N-(3-methoxy-4-(4-methyl-1H-imidazol-1-yl)phenyl)-7-(4-(trifluoromethyl)phenyl)-4,5,6,7-tetrahydro-[1,2,3]triazolo[1,5-a]pyridine-3-carboxamide], the Abtot/Ab42 selectivity ranges entry in assay [1] was “c (c: 50 fold > selectivity ≧ 10 fold)”. Moreover, the half-inhibitory concentration (IC50) in assay [2] was not above 150 nM.

Regarding `COc1cc(NC(=O)c2nnn3c2CC[C@H]3c2ccc(Cl)cc2)ccc1-n1cnc(C)c1` [Example 31, (S)-6-(4-chlorophenyl)-N-(3-methoxy-4-(4-methyl-1H-imidazol-1-yl)phenyl)-5,6-dihydro-4H-pyrrolo[1,2-c][1,2,3]triazole-3-carboxamide], the Abtot/Ab42 selectivity ranges entry in assay [1] is reported as “c (c: 50 fold > selectivity ≧ 10 fold)”. Further, the IC50 in assay [2] was in the range of 150 to 500 nM.

As to `COc1cc(NC(=O)c2nnn3c2CCC[C@@H]3c2ccc(Cl)cc2)ccc1-n1cnc(C)c1` [Example 23, (R)-7-(4-chlorophenyl)-N-(3-methoxy-4-(4-methyl-1H-imidazol-1-yl)phenyl)-4,5,6,7-tetrahydro-[1,2,3]triazolo[1,5-a]pyridine-3-carboxamide], in assay [1], the Abtot/Ab42 selectivity ranges entry is “b (b: 100 fold > selectivity ≧ 50 fold)”. The IC50 in assay [2] is not above 150 nM.

With `COc1cc(NC(=O)c2nnn3c2CCC3c2ccc(Cl)c(Cl)c2)ccc1-n1cnc(C)c1` (centres unmarked) [Example 34, 6-(3,4-dichlorophenyl)-N-(3-methoxy-4-(4-methyl-1H-imidazol-1-yl)phenyl)-5,6-dihydro-4H-pyrrolo[1,2-c][1,2,3]triazole-3-carboxamide], the Abtot/Ab42 selectivity ranges result in assay [1] is given as “a (a: selectivity ≧ 100 fold)”. Besides, the concentration for half-maximal inhibition (IC50) in assay [2] was not above 150 nM.
